Experimental data taken from US8343976B2, “Compounds, compositions and methods comprising pyrazole derivatives” (Institute for OneWorld Health, priority 2009, dated 2013).

The compounds below were run against T1, CFTR (Homo sapiens, UniProt P13569) (assay: T84 assay (FLIPR membrane potential dye, forskolin/IBMX-stimulated CFTR channel activity)). Conditions: Human colonic T84 cells; 10 μM forskolin + 100 μM IBMX; average of at least 2 runs unless marked n = 1.
T1 construct: results in the phosphorylation and opening of CFTR anion channels; host or cells: Human colonic T84 cells
T1 sequence (P13569 whole entry): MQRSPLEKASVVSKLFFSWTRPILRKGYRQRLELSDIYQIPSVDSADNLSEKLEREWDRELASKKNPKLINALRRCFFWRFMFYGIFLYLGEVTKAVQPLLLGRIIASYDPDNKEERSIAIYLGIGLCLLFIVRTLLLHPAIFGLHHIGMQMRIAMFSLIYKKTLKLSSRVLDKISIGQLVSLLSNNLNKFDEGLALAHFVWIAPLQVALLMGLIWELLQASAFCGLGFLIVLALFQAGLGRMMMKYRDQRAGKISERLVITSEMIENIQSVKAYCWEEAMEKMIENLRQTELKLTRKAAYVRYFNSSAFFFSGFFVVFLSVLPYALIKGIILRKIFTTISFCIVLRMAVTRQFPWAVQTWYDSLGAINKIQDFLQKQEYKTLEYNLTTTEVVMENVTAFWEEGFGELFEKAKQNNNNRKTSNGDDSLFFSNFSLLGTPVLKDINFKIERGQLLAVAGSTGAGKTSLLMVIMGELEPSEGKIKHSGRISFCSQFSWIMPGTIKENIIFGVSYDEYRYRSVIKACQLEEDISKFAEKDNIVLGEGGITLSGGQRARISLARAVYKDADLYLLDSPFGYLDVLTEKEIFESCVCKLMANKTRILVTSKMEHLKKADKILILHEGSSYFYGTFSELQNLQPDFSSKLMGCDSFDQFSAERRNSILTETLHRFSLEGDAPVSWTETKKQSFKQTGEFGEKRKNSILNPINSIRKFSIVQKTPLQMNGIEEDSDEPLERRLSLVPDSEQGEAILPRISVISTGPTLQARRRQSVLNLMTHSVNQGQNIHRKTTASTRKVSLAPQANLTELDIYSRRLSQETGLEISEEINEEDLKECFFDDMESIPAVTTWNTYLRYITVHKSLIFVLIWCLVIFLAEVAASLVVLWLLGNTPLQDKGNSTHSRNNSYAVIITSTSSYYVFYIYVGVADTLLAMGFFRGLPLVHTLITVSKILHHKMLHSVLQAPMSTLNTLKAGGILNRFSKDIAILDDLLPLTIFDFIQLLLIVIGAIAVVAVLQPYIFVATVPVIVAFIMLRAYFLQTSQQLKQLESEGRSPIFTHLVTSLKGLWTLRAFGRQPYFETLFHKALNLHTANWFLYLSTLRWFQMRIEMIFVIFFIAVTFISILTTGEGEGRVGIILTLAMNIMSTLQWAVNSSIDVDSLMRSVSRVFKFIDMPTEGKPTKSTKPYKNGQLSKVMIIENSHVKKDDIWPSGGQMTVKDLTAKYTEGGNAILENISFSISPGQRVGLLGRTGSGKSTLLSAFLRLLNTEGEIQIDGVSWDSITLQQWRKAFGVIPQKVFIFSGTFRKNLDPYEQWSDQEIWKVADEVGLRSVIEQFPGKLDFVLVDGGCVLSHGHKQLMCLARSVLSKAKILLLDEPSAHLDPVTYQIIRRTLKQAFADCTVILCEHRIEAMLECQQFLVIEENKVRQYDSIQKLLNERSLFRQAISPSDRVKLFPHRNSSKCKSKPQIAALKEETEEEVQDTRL
Assay type: cell-based
Experimental: (§1) For example, Human colonic T84 cells can be acquired from the European Collection of Cell Cultures (ECACC) and grown in standard culture conditions as described by the supplier. On the day before assay 25,000 T84 cells per well are plated into standard black walled, clear bottom 384-well assay plates in standard growth medium consisting of DMEM:F12 with 10% FBS and incubated overnight. On the day of the assay the plates are washed using a standard assay buffer (HBSS with 10 mM Hepes) and incubated for 15 minutes in serum free cell culture medium before the addition of a commercially available membrane potential sensitive fluorescent dye (FLIPR Red membrane potential dye, Molecular Devices Corporation). T84 cells are incubated with the FLIPR Red membrane potential dye for 45 minutes in the presence and absence of test compound before being transferred to a commercially available fluorescence imaging plate reader (FLIPR384, Molecular Devices Corporation). Fluorescence levels are monitored continuously every second for 150 seconds; after an initial 10 second baseline, CFTR channel activity is stimulated through the addition of 10 μM forskolin in the presence of 100 μM of the phosphodiesterase inhibitor iso-butylmethylxanthine (IBMX). Addition of the forskolin leads to the activation of intracellular adenylyl cylase 1, elevating cAMP levels and results in the phosphorylation and opening of CFTR anion channels. CFTR channel opening causes chloride ion efflux and subsequent depolarization of the cells, which is measured by an increase in fluorescence. CFTR inhibitor compounds prevent cell depolarization and the associated increase in fluorescence.
as §1, with “Human colonic” for “For example, Human colonic”, “T84 cells are acquired from” for “T84 cells can be acquired from”, “(ECACC) and are grown in” for “(ECACC) and grown in”

| SMILES | IC50 [µM] |
| --- | --- |
| CN(Cc1cccc(C(F)(F)F)c1)C(=O)c1cc(-c2cc(Cl)c(O)c(Cl)c2)n[nH]1 [Compound 1, 3-(3,5-dichloro-4-hydroxyphenyl)-N-methyl-N-(3-(trifluoromethyl)benzyl)-1H-pyrazole-5-carboxamide] | 9.06 |
| O=C(NCc1cccc(OC(F)(F)F)c1)c1cc(-c2cc(Cl)c(O)c(Cl)c2)n[nH]1 [Compound 2, 3-(3,5-dichloro-4-hydroxyphenyl)-N-(3-(trifluoromethoxy)benzyl)-1H-pyrazole-5-carboxamide] | 18.7 |
| O=C(NCCC(c1ccccc1)c1ccccc1)c1cc(-c2cc(Cl)c(O)c(Cl)c2)n[nH]1 [Compound 3, 3-(3,5-dichloro-4-hydroxyphenyl)-N-(3,3-diphenylpropyl)-1H-pyrazole-5-carboxamide] | 3.46 |
| CN(Cc1ccc(Oc2ccccc2)cc1)C(=O)c1cc(-c2cc(Cl)c(O)c(Cl)c2)n[nH]1 [Compound 4, 3-(3,5-dichloro-4-hydroxyphenyl)-N-methyl-N-(4-phenoxybenzyl)-1H-pyrazole-5-carboxamide] | 21.1 |
| O=C(NCc1ccc(Cl)c(Cl)c1)c1cc(-c2cc(Cl)c(O)c(Cl)c2)n[nH]1 [Compound 5, 3-(3,5-dichloro-4-hydroxyphenyl)-N-(3,4-dichlorobenzyl)-1H-pyrazole-5-carboxamide] | 29.5 |
| CC(C)(C)c1ccc(CNC(=O)c2cc(-c3cc(Cl)c(O)c(Cl)c3)n[nH]2)cc1 [Compound 6, N-(4-tert-butylbenzyl)-3-(3,5-dichloro-4-hydroxyphenyl)-1H-pyrazole-5-carboxamide] | 17.4 |
| CN(Cc1ccc(Oc2ccccn2)cc1)C(=O)c1cc(-c2cc(Cl)c(O)c(Cl)c2)n[nH]1 [Compound 7, 3-(3,5-dichloro-4-hydroxyphenyl)-N-methyl-N-(4-(pyridin-2-yloxy)benzyl)-1H-pyrazole-5-carboxamide] | 21 |
| CN(Cc1ccc(C(C)(C)C)cc1)C(=O)c1cc(-c2cc(Cl)c(O)c(Cl)c2)n[nH]1 [Compound 8, N-(4-tert-butylbenzyl)-3-(3,5-dichloro-4-hydroxyphenyl)-N-methyl-1H-pyrazole-5-carboxamide] | 16.5 |
| O=C(NCc1ccc(F)c(C(F)(F)F)c1)c1cc(-c2cc(Cl)c(O)c(Cl)c2)n[nH]1 [Compound 9, 3-(3,5-dichloro-4-hydroxyphenyl)-N-(4-fluoro-3-(trifluoromethyl)benzyl)-1H-pyrazole-5-carboxamide] | 29.8 |
| O=C(c1cc(-c2cc(Cl)c(O)c(Cl)c2)n[nH]1)N1CCN(c2cccc(C(F)(F)F)c2)CC1 [Compound 10, (3-(3,5-dichloro-4-hydroxyphenyl)-1H-pyrazol-5-yl)(4-(3-(trifluoromethyl)phenyl)piperazin-1-yl)methanone] | 29.6 |
